Laboratory results from PubChem BioAssay AID248 (DTP/NCI, 2004).
Values joined by “and” are separate entries in the source; they are usually repeats but may differ in a detail not shown here. Equal entries are not always repeated. Inconclusive results and toxic doses are left out. Cut-off read from the data, not from the text of the source: active = T/C of 150% or more; inactive = T/C below 125%.

System: L1210 leukemia ip in BDF1 mice, survival T/C
Assay: NCI In Vivo Anticancer Drug Screen. Data for tumor model L1210 Leukemia (intraperitoneal) in B6D2F1 (BDF1) mice
Settings: endpoint: mean survival time, higher = longer survival
Summary of the method: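 Each compound was tested against a transplantable tumor grown in mice. The endpoint was survival, with treated animals benchmarked against vehicle controls as a simple ratio.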

[1] = dose: 100.0 mg/kg/injection, schedule: Q01DX001 (ip), vehicle: saline
[2] = dose: 200.0 mg/kg/injection, schedule: Q01DX001 (ip), vehicle: saline
[3] = dose: 400.0 mg/kg/injection, schedule: Q01DX001 (ip), vehicle: saline
[4] = dose: 100.0 mg/kg/injection, schedule: Q04DX003 (ip), vehicle: saline with Tween-80
[5] = dose: 200.0 mg/kg/injection, schedule: Q04DX003 (ip), vehicle: saline with Tween-80
[6] = dose: 400.0 mg/kg/injection, schedule: Q04DX003 (ip), vehicle: saline with Tween-80
[7] = dose: 100.0 mg/kg/injection, schedule: Q04DX003 (ip), vehicle: Klucel (hydroxypropylcellulose) (HPC)
[8] = dose: 200.0 mg/kg/injection, schedule: Q04DX003 (ip), vehicle: Klucel (hydroxypropylcellulose) (HPC)
[9] = dose: 100.0 mg/kg/injection, schedule: Q04DX002 (ip), vehicle: Klucel (hydroxypropylcellulose) (HPC)
[10] = dose: 200.0 mg/kg/injection, schedule: Q04DX002 (ip), vehicle: Klucel (hydroxypropylcellulose) (HPC)

Measured: T/C

NCCCCC(N)C(=O)O (stereo not given)
inactive: dose: 100.0 mg/kg/injection, schedule: Q01DX001 (ip), vehicle: Klucel (hydroxypropylcellulose) (HPC) 115 % of control | [1] 94 % of control | dose: 200.0 mg/kg/injection, schedule: Q01DX001 (ip), vehicle: Klucel (hydroxypropylcellulose) (HPC) 100 % of control | [2] 97 % of control | dose: 400.0 mg/kg/injection, schedule: Q01DX001 (ip), vehicle: Klucel (hydroxypropylcellulose) (HPC) 86 % of control | [3] 94 % of control

C#CC(NC(C)(C)CC(C)(C)C)C(C)C (stereo not given)
inactive: dose: 100.0 mg/kg/injection, schedule: Q04DX002 (ip), vehicle: saline 109 % of control | dose: 200.0 mg/kg/injection, schedule: Q04DX002 (ip), vehicle: saline 109 % of control | dose: 400.0 mg/kg/injection, schedule: Q04DX002 (ip), vehicle: saline 100 % of control

CCOC(=O)C(O)c1ccccc1 (stereo not given)
inactive: [4] 98 % of control | [5] 98 % of control | [6] 98 % of control

COc1ncnc2c1ncn2C1OC(CF)C(O)C1O (stereo not given)
inactive: dose: 100.0 mg/kg/injection, schedule: Q01DX005 (ip), vehicle: saline 101 % of control | dose: 200.0 mg/kg/injection, schedule: Q01DX005 (ip), vehicle: saline 103 % of control

CC(C)C[As](=O)(O)O
inactive: [7] 106 % of control | [8] 95 % of control

CCOC(=O)c1ccc(N=Cc2cccc([N+](=O)[O-])c2)cc1
inactive: [7] 89 % of control | [8] 88 % of control | dose: 400.0 mg/kg/injection, schedule: Q04DX003 (ip), vehicle: Klucel (hydroxypropylcellulose) (HPC) 96 % of control

CN(C)C(=O)c1cc(C(=O)N(C)C)c[n+](Cc2c(Cl)cccc2Cl)c1
inactive: dose: 18.75 mg/kg/injection, schedule: Q01DX009 (ip), vehicle: saline 95 % of control | dose: 37.5 mg/kg/injection, schedule: Q01DX009 (ip), vehicle: saline 95 % of control | dose: 75.0 mg/kg/injection, schedule: Q01DX001 (ip), vehicle: saline 97 % of control | dose: 75.0 mg/kg/injection, schedule: Q01DX009 (ip), vehicle: saline 94 % of control | dose: 75.0 mg/kg/injection, schedule: Q04DX003 (ip), vehicle: saline 100 % of control | dose: 150.0 mg/kg/injection, schedule: Q01DX001 (ip), vehicle: saline 106 % of control | dose: 150.0 mg/kg/injection, schedule: Q04DX003 (ip), vehicle: saline 96 % of control | dose: 300.0 mg/kg/injection, schedule: Q01DX001 (ip), vehicle: saline 104 % of control

CCOC(=O)C1=C(C(=O)OCC)C2(c3ccccc3)NC1(c1ccccc1)c1ccccc12
inactive: [1] 101 % of control | [2] 97 % of control | [3] 97 % of control

CC(C)(C)CC1=C(O)c2ccccc2C(=O)C1=O
inactive: dose: 50.0 mg/kg/injection, schedule: Q01DX001 (ip), vehicle: carboxymethylcellulose (CMC) 114 % of control | dose: 100.0 mg/kg/injection, schedule: Q01DX001 (ip), vehicle: carboxymethylcellulose (CMC) 111 % of control | dose: 200.0 mg/kg/injection, schedule: Q01DX001 (ip), vehicle: carboxymethylcellulose (CMC) 105 % of control | dose: 400.0 mg/kg/injection, schedule: Q01DX001 (ip), vehicle: carboxymethylcellulose (CMC) 100 % of control

c1ccc(N2CCSCC2)cc1
inactive: dose: 12.0 mg/kg/injection, schedule: Q01DX Z (ip), vehicle: methylcellulose (MC) 108 % of control | dose: 18.0 mg/kg/injection, schedule: Q01DX Z (ip), vehicle: methylcellulose (MC) 110 % of control | dose: 27.0 mg/kg/injection, schedule: Q01DX Z (ip), vehicle: methylcellulose (MC) 103 % of control | dose: 40.5 mg/kg/injection, schedule: Q01DX Z (ip), vehicle: methylcellulose (MC) 92 % of control

CC1CN(Cc2cccc(C#N)c2)CC(C)N1 (stereo not given)
inactive: dose: 25.0 mg/kg/injection, schedule: Q01DX009 (ip), vehicle: water 93 % of control | dose: 50.0 mg/kg/injection, schedule: Q01DX009 (ip), vehicle: water 101 % of control | dose: 100.0 mg/kg/injection, schedule: Q01DX009 (ip), vehicle: water 100 % of control

CCN=C(c1ccc(NC(=O)c2ccc(C(=O)Nc3ccc(C(=NCC)N(CC)C(=O)CC(C)C)cc3)cc2)cc1)N(CC)C(=O)CC(C)C
inactive: dose: 3.12 mg/kg/injection, schedule: Q01DX015 (ip), vehicle: methylcellulose (MC) 96 % of control | dose: 6.25 mg/kg/injection, schedule: Q01DX015 (ip), vehicle: methylcellulose (MC) 96 % of control | dose: 12.5 mg/kg/injection, schedule: Q01DX015 (ip), vehicle: methylcellulose (MC) 92 % of control | dose: 25.0 mg/kg/injection, schedule: Q01DX015 (ip), vehicle: methylcellulose (MC) 93 % of control | dose: 50.0 mg/kg/injection, schedule: Q01DX015 (ip), vehicle: methylcellulose (MC) 96 % of control | dose: 100.0 mg/kg/injection, schedule: Q01DX015 (ip), vehicle: methylcellulose (MC) 88 % of control | dose: 200.0 mg/kg/injection, schedule: Q01DX015 (ip), vehicle: methylcellulose (MC) 94 % of control

O=C(OC1CSC(OC(=O)c2ccccc2)CS1)c1ccccc1 (stereo not given)
inactive: dose: 100.0 mg/kg/injection, schedule: Q04DX002 (ip), vehicle: saline with Tween-80 95 % of control | dose: 200.0 mg/kg/injection, schedule: Q04DX002 (ip), vehicle: saline with Tween-80 95 % of control | dose: 400.0 mg/kg/injection, schedule: Q04DX002 (ip), vehicle: saline with Tween-80 91 % of control

CCOc1ccc2nc(/C=C/c3ccc(N(C)C)cc3)ccc2c1
inactive: dose: 50.0 mg/kg/injection, schedule: Q01DX009 (ip), vehicle: Klucel (hydroxypropylcellulose) (HPC) 94 % of control | dose: 100.0 mg/kg/injection, schedule: Q01DX009 (ip), vehicle: Klucel (hydroxypropylcellulose) (HPC) 94 % of control | dose: 200.0 mg/kg/injection, schedule: Q01DX009 (ip), vehicle: Klucel (hydroxypropylcellulose) (HPC) 92 % of control | dose: 400.0 mg/kg/injection, schedule: Q01DX009 (ip), vehicle: Klucel (hydroxypropylcellulose) (HPC) 100 % of control

C1C2CC3CC1CC(C2)C31CO1 (stereo not given)
inactive: [9] 90 % of control | [10] 90 % of control | dose: 400.0 mg/kg/injection, schedule: Q04DX002 (ip), vehicle: Klucel (hydroxypropylcellulose) (HPC) 105 % of control

O=C(O)C1CCCCC1C(=O)Nc1ccccc1C(F)(F)F (stereo not given)
inactive: dose: 100.0 mg/kg/injection, schedule: Q01DX009 (ip), vehicle: saline with Tween-80 98 % of control | [4] 105 % of control | dose: 200.0 mg/kg/injection, schedule: Q01DX009 (ip), vehicle: saline with Tween-80 90 % of control | [5] 100 % of control | dose: 400.0 mg/kg/injection, schedule: Q01DX009 (ip), vehicle: saline with Tween-80 94 % of control | [6] 100 % of control

C1COC(C2OCCO2)C1 (stereo not given)
inactive: dose: 100.0 mg/kg/injection, schedule: Q01DX009 (ip), vehicle: saline 103 % of control | dose: 200.0 mg/kg/injection, schedule: Q01DX009 (ip), vehicle: saline 90 % of control | dose: 400.0 mg/kg/injection, schedule: Q01DX009 (ip), vehicle: saline 95 % of control

NNC(=O)CNc1cccc(Br)c1
inactive: dose: 50.0 mg/kg/injection, schedule: Q04DX002 (ip), vehicle: Klucel (hydroxypropylcellulose) (HPC) 101 % of control and 92 % of control | [9] 114 % of control and 120 % of control | [10] 108 % of control

CC(=O)C1=C(c2ccc([N+](=O)[O-])cc2)NC(=O)NC1c1ccco1 (stereo not given)
inactive: [4] 98 % of control | [5] 93 % of control | [6] 100 % of control

Cc1ccc(/C=N/N)s1
inactive: dose: 100.0 mg/kg/injection, schedule: Q04DX003 (ip), vehicle: other 92 % of control | dose: 200.0 mg/kg/injection, schedule: Q04DX003 (ip), vehicle: other 99 % of control
